Experimental data: PMC11606603, “The membrane domains of mammalian adenylyl cyclases are lipid receptors” (eLife, 2024)
Several values for one entry are separate records, joined by “and”; a condition that tells them apart may be missing. Identical values can stand only once.

How the values were obtained:
Type in all cases: biochemical
mAC1 = biological target: T1, mAC1 (Homo sapiens, UniProt Q08828); assay: AC assay, Gsα-stimulated mAC1 in membranes from transfected HEK293 cells; conditions: 20 µM fatty acid; 300 nM Gsα; single experiments
T1 construct: Human mAC genes were from GenScript and fitted with a C-terminal FLAG-tag; FLAG (C); made in house; host or cells: HEK293, permanently transfected; membrane preparation
Procedure, shortened: (§1)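 Adenylyl cyclase activity was measured in 100,000 × g membrane fractions prepared from HEK293 cells permanently transfected with C-terminally FLAG-tagged human AC isoforms. Assays contained 1 mM ATP and 2 mM MgCl2 with an ATP-regenerating system at pH 7.5.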

mAC2 = biological target: T2, mAC2 (Homo sapiens, UniProt Q08462); assay: AC assay, Gsα-stimulated mAC2 in membranes from transfected HEK293 cells; conditions: Figure 5-figure supplement 1 left, 20 µM
T2 construct: Human mAC genes were from GenScript and fitted with a C-terminal FLAG-tag; FLAG (C); made in house; host or cells: HEK293, permanently transfected; membrane preparation
Procedure, shortened: as §1

mAC3 = biological target: T3, mAC3 (Homo sapiens, UniProt O60266); assay: AC assay, Gsα-stimulated mAC3 in membranes from transfected HEK293 cells; conditions: for mAC3 activity [%] (100% = 300nM Gsα stimulation): fatty acid 20 µM, individual experiments
T3 construct: Human mAC genes were from GenScript and fitted with a C-terminal FLAG-tag; FLAG (C); made in house; host or cells: HEK293, permanently transfected; membrane preparation
Procedure, shortened: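 cAMP formation was quantified by HTRF against a cAMP standard curve, with EC50 or IC50 derived by curve fitting. Reactions contained 1 mM ATP, 2 mM MgCl2, 3 mM creatine phosphate, 60 μg/ml creatine kinase and 50 mM MOPS pH 7.5, using membranes of stably transfected HEK293 cells carrying FLAG-tagged human AC.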

mAC4 = biological target: T4, mAC4 (Homo sapiens, UniProt Q8NFM4); assay: AC assay, Gsα-stimulated mAC4 in membranes from transfected HEK293 cells; conditions: 20 µM fatty acid; 300 nM Gsα; single experiments
T4 construct: Human mAC genes were from GenScript and fitted with a C-terminal FLAG-tag; FLAG (C); made in house; host or cells: HEK293, permanently transfected; membrane preparation
T4 sequence (Q8NFM4 1-1077): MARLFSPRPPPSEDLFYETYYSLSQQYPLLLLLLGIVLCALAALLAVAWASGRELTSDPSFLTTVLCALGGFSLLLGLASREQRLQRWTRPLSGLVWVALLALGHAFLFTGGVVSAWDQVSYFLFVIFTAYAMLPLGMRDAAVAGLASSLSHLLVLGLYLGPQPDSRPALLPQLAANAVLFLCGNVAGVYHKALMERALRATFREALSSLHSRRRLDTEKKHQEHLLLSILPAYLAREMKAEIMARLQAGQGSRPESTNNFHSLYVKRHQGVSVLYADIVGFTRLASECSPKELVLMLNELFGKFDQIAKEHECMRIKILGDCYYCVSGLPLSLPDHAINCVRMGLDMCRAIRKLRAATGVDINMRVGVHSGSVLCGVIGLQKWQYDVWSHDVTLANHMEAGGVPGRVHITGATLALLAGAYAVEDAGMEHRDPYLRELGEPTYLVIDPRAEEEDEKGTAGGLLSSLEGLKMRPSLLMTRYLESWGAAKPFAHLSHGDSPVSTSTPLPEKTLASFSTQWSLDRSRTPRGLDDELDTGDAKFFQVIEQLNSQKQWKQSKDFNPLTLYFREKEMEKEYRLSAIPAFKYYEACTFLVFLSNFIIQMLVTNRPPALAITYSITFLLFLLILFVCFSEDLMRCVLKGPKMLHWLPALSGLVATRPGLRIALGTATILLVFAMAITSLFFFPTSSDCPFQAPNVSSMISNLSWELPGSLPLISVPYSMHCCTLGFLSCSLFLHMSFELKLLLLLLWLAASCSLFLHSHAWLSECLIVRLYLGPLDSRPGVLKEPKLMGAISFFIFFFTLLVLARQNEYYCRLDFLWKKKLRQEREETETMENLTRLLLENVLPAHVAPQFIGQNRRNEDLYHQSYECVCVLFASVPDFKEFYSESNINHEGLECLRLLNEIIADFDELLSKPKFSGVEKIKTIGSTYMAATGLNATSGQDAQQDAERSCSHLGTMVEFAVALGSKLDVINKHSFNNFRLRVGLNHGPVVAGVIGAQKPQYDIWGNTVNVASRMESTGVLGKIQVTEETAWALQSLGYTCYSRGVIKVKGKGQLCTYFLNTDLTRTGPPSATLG
Procedure, shortened: as §1

mAC5 = biological target: T5, mAC5 (Homo sapiens, UniProt O95622); assay: AC assay, Gsα-stimulated mAC5 in membranes from transfected HEK293 cells; conditions: 20µM fatty acid concentration
T5 construct: Human mAC genes were from GenScript and fitted with a C-terminal FLAG-tag; FLAG (C); made in house; host or cells: HEK293, permanently transfected; membrane preparation
Procedure, shortened: as §1

mAC6 = biological target: T6, mAC6 (Homo sapiens, UniProt O43306); assay: AC assay, Gsα-stimulated mAC6 in membranes from transfected HEK293 cells; conditions: 20µM fatty acid concentration
T6 construct: Human mAC genes were from GenScript and fitted with a C-terminal FLAG-tag; FLAG (C); made in house; host or cells: HEK293, permanently transfected; membrane preparation
Procedure, shortened: as §1

mAC7 = biological target: T7, mAC7 (Homo sapiens, UniProt P51828); assay: AC assay, Gsα-stimulated mAC7 in membranes from transfected HEK293 cells; conditions: Figure 5-figure supplement 2 left, 20 µM
T7 construct: Human mAC genes were from GenScript and fitted with a C-terminal FLAG-tag; FLAG (C); made in house; host or cells: HEK293, permanently transfected; membrane preparation
Procedure, shortened: as §1

mAC8 = biological target: T8, mAC8 (Homo sapiens, UniProt P40145); assay: AC assay, Gsα-stimulated mAC8 in membranes from transfected HEK293 cells; conditions: 20µM fatty acid concentration
T8 construct: Human mAC genes were from GenScript and fitted with a C-terminal FLAG-tag; FLAG (C); made in house; host or cells: HEK293, permanently transfected; membrane preparation
Procedure: hAC sequences were from NCBI were: ADCY1: NM_021116.3; ADCY2: NM_020546.2; ADCY3: NM_004036.4; ADCY4: NM_001198568.2; ADCY5: NM_183357.2; ADCY6: NM_015270.4; ADCY7: NM_001114.4; ADCY8: NM_001115.2; ADCY9: NM_001116.3. Human mAC genes were from GenScript and fitted with a C-terminal FLAG-tag. […] The gene was synthesized by GenScript. HEK293 cells were maintained in Dulbeccos Modified Eagle Medium (DMEM) with 10% fetal bovine serum at 37°C and 5% CO2. Transfection with AC plasmids was with PolyJet (SignaGen, Frederick, MD, USA). Permanent cell lines were generated by selection for 7 days with 600 µg/ml G418 and maintained with 300 µg/ml For membrane preparation, cells were tyrpsinized, collected by centrifugation (3000 × g, 5 min) and lysed and homogenized in 20 mM HEPES, pH 7.5, 1 mM Ethylenediaminetetraacetic acid (EDTA), 2 mM MgCl2, 1 mM Dithiothreitol (DTT), one tablet of cOmplete, EDTA-free (per 50 ml) and 250 mM sucrose by 20 strokes in a potter homogenizer on ice. Debris was removed (5 min at 1000 × g, 0°C), membranes were collected at 100,000 × g, 60 min at 0°C, suspended and stored at −80°C in 20 mM MOPS, pH 7.5, 0.5 mM EDTA, 2 mM MgCl2. […] Three cerebral cortices were dissected and homogenized in 4.5 ml cold 48 mM Tris–HCl, pH 7.4, 12 mM MgC1_2, and 0.1 mM Ethylene glycol-bis(β-aminoethyl ether)-N,N,N′,N′-tetraacetic acid (EGTA) with a Polytron hand disperser (Kinematica AG, Switzerland). […] The pellet was washed once with 5 ml 1 mM KHCO3. The final suspension in 2 ml 1 mM KHCO3 was stored in aliquots at −80°C.
In a volume of 10 μl, AC activities were measured using 1 mM ATP, 2 mM MgCl2, 3 mM creatine phosphate, 60 μg/ml creatine kinase, and 50 mM MOPS pH 7.5. The cAMP assay kit from Cisbio (Codolet, France) was used for detection according to the supplier’s instructions. For each assay, a cAMP standard curve was established. EC50 and IC50 values were calculated by GraphPad Prism version 8.4.3 for Windows, GraphPad Software, San Diego, CA, USA, https://www.graphpad.com .

mAC9 = biological target: T9, mAC9 (Homo sapiens, UniProt O60503); assay: AC assay, Gsα-stimulated mAC9 in membranes from transfected HEK293 cells; conditions: 300 nM Gsα, single experiments
T9 construct: Human mAC genes were from GenScript and fitted with a C-terminal FLAG-tag; FLAG (C); made in house; host or cells: HEK293, permanently transfected; membrane preparation
Procedure, shortened: as §1

T7 sequence (P51828 whole entry): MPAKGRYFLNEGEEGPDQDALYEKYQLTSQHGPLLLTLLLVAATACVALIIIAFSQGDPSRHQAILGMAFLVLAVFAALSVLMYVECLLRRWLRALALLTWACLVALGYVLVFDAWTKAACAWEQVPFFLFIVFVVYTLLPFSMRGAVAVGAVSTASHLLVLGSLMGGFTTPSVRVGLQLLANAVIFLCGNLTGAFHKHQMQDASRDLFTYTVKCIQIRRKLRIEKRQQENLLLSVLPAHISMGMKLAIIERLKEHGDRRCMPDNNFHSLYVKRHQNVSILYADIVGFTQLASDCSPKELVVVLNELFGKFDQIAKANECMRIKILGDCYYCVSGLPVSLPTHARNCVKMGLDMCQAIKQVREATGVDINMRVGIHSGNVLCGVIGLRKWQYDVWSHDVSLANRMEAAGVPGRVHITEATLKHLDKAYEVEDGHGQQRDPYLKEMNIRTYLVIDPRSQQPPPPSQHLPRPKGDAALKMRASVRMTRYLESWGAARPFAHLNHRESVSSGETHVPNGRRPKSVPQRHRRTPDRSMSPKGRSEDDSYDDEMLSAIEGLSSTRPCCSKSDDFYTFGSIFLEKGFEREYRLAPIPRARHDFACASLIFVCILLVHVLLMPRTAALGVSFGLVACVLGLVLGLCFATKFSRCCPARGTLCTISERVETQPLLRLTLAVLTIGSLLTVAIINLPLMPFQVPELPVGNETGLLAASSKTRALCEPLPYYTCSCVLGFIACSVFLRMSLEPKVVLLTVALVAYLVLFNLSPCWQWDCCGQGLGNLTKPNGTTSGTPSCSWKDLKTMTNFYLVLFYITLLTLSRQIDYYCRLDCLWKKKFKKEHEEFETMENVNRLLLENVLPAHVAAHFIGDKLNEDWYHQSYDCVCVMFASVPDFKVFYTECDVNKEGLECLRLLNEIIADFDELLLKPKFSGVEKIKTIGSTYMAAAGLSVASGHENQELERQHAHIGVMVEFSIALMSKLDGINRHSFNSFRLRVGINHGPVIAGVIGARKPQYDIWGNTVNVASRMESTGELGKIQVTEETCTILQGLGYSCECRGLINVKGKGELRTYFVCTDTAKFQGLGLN
T7 sequence (P63092 2-394 Q227L partner): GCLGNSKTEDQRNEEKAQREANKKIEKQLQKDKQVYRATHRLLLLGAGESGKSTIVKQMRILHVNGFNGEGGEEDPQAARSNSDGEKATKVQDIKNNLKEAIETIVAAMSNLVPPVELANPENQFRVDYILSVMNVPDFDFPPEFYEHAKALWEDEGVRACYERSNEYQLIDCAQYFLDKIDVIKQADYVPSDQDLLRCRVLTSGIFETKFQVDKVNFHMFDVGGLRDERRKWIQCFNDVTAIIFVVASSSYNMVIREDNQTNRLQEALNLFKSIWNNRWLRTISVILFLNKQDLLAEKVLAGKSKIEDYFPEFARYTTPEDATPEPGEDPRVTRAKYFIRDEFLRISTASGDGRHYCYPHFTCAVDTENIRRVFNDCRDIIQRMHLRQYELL
T8 sequence (P40145 whole entry): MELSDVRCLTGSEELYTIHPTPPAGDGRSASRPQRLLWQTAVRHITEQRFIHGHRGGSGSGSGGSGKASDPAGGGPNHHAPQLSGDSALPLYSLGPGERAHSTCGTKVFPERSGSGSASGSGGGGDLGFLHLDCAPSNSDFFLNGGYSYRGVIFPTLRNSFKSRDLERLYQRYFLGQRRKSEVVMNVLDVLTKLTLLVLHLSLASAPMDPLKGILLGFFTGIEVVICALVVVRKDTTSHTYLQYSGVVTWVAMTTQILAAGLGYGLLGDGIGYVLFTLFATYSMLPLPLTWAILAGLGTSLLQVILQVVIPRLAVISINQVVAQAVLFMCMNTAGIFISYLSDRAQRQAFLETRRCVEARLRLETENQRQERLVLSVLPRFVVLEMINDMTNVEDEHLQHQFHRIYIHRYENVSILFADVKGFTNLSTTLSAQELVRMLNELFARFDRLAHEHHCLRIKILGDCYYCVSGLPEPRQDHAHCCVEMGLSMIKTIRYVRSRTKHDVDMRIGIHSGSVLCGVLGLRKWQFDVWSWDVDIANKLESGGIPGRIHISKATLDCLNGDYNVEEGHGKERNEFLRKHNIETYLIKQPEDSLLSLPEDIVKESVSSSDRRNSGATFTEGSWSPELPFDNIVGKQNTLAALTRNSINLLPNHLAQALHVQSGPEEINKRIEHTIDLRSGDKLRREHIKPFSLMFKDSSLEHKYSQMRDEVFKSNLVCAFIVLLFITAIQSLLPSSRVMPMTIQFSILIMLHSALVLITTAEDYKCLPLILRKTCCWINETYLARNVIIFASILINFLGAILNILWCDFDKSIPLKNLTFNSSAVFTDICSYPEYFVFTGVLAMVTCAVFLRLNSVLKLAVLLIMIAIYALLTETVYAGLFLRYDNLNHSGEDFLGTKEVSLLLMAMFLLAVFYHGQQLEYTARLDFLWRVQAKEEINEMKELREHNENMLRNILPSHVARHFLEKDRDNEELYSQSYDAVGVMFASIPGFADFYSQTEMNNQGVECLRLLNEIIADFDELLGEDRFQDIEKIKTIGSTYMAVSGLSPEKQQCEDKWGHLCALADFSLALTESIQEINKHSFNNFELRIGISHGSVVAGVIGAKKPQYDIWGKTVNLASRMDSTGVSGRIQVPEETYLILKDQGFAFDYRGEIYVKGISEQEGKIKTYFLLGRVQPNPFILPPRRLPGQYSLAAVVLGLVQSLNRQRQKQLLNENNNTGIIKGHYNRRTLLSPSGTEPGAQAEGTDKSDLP
T5 sequence (O95622 whole entry): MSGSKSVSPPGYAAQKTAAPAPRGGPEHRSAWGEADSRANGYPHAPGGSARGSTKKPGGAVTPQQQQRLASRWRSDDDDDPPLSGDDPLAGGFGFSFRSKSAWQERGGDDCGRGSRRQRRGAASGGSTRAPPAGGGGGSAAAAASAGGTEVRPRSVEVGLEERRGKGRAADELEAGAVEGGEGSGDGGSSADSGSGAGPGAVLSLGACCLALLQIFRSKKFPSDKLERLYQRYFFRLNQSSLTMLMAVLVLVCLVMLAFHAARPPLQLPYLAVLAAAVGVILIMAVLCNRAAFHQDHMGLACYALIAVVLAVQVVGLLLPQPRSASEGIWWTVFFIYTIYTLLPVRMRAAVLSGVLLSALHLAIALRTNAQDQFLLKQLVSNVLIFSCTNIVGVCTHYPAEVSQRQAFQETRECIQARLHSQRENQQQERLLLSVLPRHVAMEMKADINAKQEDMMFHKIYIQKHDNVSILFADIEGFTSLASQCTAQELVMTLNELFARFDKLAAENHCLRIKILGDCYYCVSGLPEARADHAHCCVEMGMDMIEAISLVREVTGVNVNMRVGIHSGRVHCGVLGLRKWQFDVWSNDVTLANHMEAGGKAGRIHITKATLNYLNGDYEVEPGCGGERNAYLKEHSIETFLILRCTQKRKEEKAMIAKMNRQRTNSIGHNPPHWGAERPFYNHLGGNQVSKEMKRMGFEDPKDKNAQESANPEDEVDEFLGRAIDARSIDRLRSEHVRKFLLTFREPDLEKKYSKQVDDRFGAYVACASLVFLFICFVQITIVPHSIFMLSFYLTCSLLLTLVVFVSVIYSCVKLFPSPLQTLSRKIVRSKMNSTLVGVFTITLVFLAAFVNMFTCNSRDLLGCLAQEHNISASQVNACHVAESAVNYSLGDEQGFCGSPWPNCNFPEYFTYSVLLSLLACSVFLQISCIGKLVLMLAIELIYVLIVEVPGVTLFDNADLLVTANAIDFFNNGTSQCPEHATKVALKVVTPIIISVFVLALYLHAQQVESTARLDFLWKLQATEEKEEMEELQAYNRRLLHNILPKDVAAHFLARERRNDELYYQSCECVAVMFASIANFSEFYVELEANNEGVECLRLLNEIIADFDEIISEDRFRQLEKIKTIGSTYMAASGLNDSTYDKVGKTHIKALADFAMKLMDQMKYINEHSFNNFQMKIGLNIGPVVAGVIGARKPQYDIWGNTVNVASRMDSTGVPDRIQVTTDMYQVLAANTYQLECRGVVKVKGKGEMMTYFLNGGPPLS
T1 sequence (Q08828 whole entry): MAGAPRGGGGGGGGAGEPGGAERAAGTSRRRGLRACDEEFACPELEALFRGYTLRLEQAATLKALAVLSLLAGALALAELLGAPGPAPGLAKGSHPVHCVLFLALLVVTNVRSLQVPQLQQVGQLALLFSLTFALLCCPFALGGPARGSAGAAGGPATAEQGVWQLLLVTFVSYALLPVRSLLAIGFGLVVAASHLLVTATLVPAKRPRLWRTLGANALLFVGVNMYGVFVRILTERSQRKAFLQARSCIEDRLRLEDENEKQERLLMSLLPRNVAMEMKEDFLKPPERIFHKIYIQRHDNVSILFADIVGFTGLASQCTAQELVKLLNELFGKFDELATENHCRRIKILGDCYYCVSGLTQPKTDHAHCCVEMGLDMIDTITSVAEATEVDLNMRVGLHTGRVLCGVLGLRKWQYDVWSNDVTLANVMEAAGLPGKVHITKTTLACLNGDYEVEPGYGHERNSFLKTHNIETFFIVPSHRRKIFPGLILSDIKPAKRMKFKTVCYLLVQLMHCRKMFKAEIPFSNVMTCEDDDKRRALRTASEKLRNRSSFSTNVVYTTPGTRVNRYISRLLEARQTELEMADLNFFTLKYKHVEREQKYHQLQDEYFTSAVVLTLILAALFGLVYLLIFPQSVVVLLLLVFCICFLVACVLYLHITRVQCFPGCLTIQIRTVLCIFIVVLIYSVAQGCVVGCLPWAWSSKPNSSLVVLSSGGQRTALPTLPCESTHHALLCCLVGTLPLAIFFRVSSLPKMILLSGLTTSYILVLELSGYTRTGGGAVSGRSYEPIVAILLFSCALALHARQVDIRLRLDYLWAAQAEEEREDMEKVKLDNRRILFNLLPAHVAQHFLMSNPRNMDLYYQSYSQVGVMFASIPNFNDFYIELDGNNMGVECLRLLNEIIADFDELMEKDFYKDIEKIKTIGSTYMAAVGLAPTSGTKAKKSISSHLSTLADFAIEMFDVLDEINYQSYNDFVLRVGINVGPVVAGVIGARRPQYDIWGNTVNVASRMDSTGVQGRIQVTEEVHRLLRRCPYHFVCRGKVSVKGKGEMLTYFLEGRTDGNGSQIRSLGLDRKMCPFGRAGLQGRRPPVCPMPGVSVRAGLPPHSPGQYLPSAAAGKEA

SMILES	mAC1 activity [%] (100% = 300nM Gsα stimulation); 20µM fatty acid concentration (mAC1)	mAC2 activity [%] (100% = 300nM Gsα stimulation); 20µM fatty acid concentration (mAC2)	Effect of lipid on 300 nM Gsα-stimulated mAC3 (mAC3; 20 µM, in words)	mAC3 activity [%] (100% = 300nM Gsα stimulation) (mAC3)	mAC4 activity [%] (100% = 300nM Gsα stimulation); 20µM fatty acid concentration (mAC4)	mAC5 activity [%] (100% = 300nM Gsα stimulation) (mAC5)	mAC6 activity [%] (100% = 300nM Gsα stimulation) (mAC6)	mAC7 activity [%] (100% = 300nM Gsα stimulation); 20µM fatty acid concentration (mAC7)	mAC8 activity [%] (100% = 300nM Gsα stimulation) (mAC8)	mAC9 activity (%);(100% = Gsα stimulation) stimulated by 300nM Gsα (mAC9; 1 µM fatty acid)	mAC9 activity (%);(100% = Gsα stimulation) stimulated by 300nM Gsα (mAC9; 3 µM fatty acid)	mAC9 activity (%);(100% = Gsα stimulation) stimulated by 300nM Gsα (mAC9; 6 µM fatty acid)	mAC9 activity (%);(100% = Gsα stimulation) stimulated by 300nM Gsα (mAC9; 10 µM fatty acid)	mAC9 activity (%);(100% = Gsα stimulation) stimulated by 300nM Gsα (mAC9; 20 µM fatty acid)	mAC9 activity [%] (100% = 300nM Gsα stimulation); 20µM fatty acid concentration (mAC9; 20 µM fatty acid)
CCCCCCCCCCCCCC(=O)O [Myristic acid, Myristic (tetradecanoic) acid]	91% and 96% and 101%	102% and 121% and 90% and 101%	no significant effect	90% and 108% and 224% and 226%	71% and 59% and 97%	105% and 80% and 76%	98% and 72% and 83%	94% and 152% and 85% and 110%	119% and 130% and 99%	82% and 122% and 127% and 109% and 126% and 137%	129% and 111% and 136% and 125%	104% and 129% and 178% and 179% and 144% and 168%	130% and 135% and 224% and 171% and 187% and 200% and 115%	168% and 189% and 240% and 185% and 310%	185% and 310% and 168% and 189% and 240%
CCCCCCCCCCCCCCCCCC [Octadecane]	96% and 100%	74% and 87%		67% and 79%	71% and 92%	82% and 128%	80% and 141%	87% and 68%	129% and 109%						70% and 95%
